The values below come from patent US10034886B2, “GLP-1 receptor modulators” (Celgene International II SÀRL, priority 2014, dated 2018).

T1 sequence (P43220 24-463): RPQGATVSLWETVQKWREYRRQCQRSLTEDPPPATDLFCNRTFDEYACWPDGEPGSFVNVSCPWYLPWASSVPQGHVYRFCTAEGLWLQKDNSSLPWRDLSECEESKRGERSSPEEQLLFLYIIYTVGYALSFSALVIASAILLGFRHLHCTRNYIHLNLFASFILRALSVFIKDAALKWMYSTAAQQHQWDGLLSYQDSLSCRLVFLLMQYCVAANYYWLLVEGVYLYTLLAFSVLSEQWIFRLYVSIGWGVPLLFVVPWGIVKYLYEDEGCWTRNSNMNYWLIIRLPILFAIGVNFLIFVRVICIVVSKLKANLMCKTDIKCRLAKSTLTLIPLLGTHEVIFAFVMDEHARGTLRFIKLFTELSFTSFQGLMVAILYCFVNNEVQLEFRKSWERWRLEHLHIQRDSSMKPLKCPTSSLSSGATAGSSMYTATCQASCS
T1 sequence (P01275 100-127 partner limits assumed): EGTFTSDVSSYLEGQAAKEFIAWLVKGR

This assay addresses T1, GLP-1R (Homo sapiens, UniProt P43220).
T1 construct: host or cells: GLP-1R CRE-bla CHO-K1 cells
As to the kind of experiment: EC20 GLP-1(9-36) PAM cAMP assay: dose response of compound in the presence of fixed concentration of GLP-1(9-36). It counts as cell-based. The settings on record: dose response of compound in presence of fixed concentration of GLP-1(9-36), GLP-1R CRE-bla CHO-K1 cells, read-out: EC20 GLP-1(9-36) PAM EC50. The essentials: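 Positive allosteric modulation read as cAMP accumulation: compound titrations (12 points) combined with an EC20 level of GLP-1(9-36) on CHO-K1 GLP-1R CRE-bla cells, IBMX present, 30 min, 37 °C, pH 7.4 buffer. Luminescence converted to cAMP via standards; non-linear fit gave EC50 and Emax.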
For orientation: Cyclic AMP is a second messenger, typically raised through Gs and lowered through Gi signalling.
Broadly, the EC50 is the concentration that produces a half-maximal response. On to `CCCCCCCOc1ccc(-c2cnc(-c3ccc(C[C@H](NC(=O)c4ccc(C(C)(C)C)s4)C(=O)N[C@H](C(=O)O)[C@H](C)CC)cc3)nc2)cc1` [Compound 657], for which the half-maximal effective concentration (EC50) lay within 800 to 2500 nM.
As for `CCCCCCCOc1ccc(-c2cnc(-c3ccc(C[C@H](NC(=O)c4ccc(C(C)(C)C)s4)C(=O)N[C@@H](C(=O)O)[C@H](C)CC)cc3)nc2)cc1` [Compound 658], the figure is < 800 nM; as for `CCCCCCCOc1ccc(-c2cnc(-c3ccc(C[C@H](NC(=O)c4ccc(C(C)(C)C)s4)C(=O)N[C@@H](C(=O)O)[C@@H](C)O)cc3)nc2)cc1` [Compound 659], < 800 nM.
For the compound `CCCCCCCOc1ccc(-c2cnc(-c3ccc(C[C@H](NC(=O)c4ccc(C(C)(C)C)cc4)C(=O)N4CCC[C@H]4C(=O)O)cc3)nc2)cc1` [Compound 660], the EC50 was in the range of 800 to 2500 nM.
As for `CCCCCCCOc1ccc(-c2cnc(-c3ccc(C[C@H](NC(=O)c4ccc(C(C)(C)C)cc4)C(=O)N4CCC(O)C(C(=O)O)C4)cc3)nc2)cc1` (stereo partly shown) [Compound 661], the figure is < 800 nM; as for `CCCCCCCOc1ccc(-c2cnc(-c3ccc(C[C@H](NC(=O)c4ccc(C(C)(C)C)cc4)C(=O)N4CC(O)CC(C(=O)O)C4)cc3)nc2)cc1` (stereo partly shown) [Compound 662], < 800 nM; as for `CCCCCCCOc1ccc(-c2cnc(-c3ccc(C[C@H](NC(=O)c4ccc(C(C)(C)C)s4)C(=O)N[C@H](CC(=O)NC)C(=O)O)cc3)nc2)cc1` [Compound 663], 800 to 2500 nM.
As for `CCCCCCCOc1ccc(-c2cnc(-c3ccc(C[C@H](NC(=O)c4ccc(C(C)(C)C)s4)C(=O)N[C@@H](C(=O)O)[C@H](C)O)cc3)nc2)cc1` [Compound 664], the figure is 2500 to 5000 nM; as for `CCCCCCCOc1ccc(-c2cnc(-c3ccc(C[C@H](NC(=O)c4ccc(C(C)(C)C)s4)C(=O)N[C@H](C(=O)O)[C@@H](O)c4ccccc4)cc3)nc2)cc1` [Compound 665], 800 to 2500 nM; as for `CCCCCCCOc1ccc(-c2cnc(-c3ccc(C[C@H](NC(=O)c4ccc(C(C)(C)C)s4)C(=O)N[C@@H](C(=O)O)[C@H](O)c4ccccc4)cc3)nc2)cc1` [Compound 666, (2R,3R)-2-((S)-2-(5-(tert-butyl)thiophene-2-carboxamido)-3-(4-(5-(4-(heptyloxy)phenyl)-pyrimidin-2-yl)phenyl)propanamido)-3-hydroxy-3-phenylpropanoic acid], 800 to 2500 nM.
As for `CCCCCCCOc1ccc(-c2cnc(-c3ccc(C[C@H](NC(=O)c4ccc(C(C)(C)C)s4)C(=O)N[C@@H](C(=O)O)[C@@H](O)c4ccccc4)cc3)nc2)cc1` [Compound 667, (2R,3S)-2-((S)-2-(5-(tert-butyl)thiophene-2-carboxamido)-3-(4-(5-(4-(heptyloxy)phenyl)pyrimidin-2-yl)phenyl)propanamido)-3-hydroxy-3-phenylpropanoic acid], the figure is 800 to 2500 nM.
Take `CCCCCCCOc1ccc(-c2cnc(-c3ccc(C[C@H](NC(=O)c4ccc(C(C)(C)C)s4)C(=O)N4CC[C@H]4C(=O)O)cc3)nc2)cc1` [Compound 668]: the EC50 is 800 to 2500 nM.
The same measure for `CCCCCCCOc1ccc(-c2cnc(-c3ccc(C[C@H](NC(=O)c4ccc(C(C)(C)C)s4)C(=O)N4CC[C@@H]4C(=O)O)cc3)nc2)cc1` [Compound 669]: 800 to 2500 nM; for `CCCCCCCOc1ccc(-c2cnc(-c3ccc(C(NC(=O)c4ccc(C(C)(C)C)cc4)C(=O)O)cc3)nc2)cc1` (stereo not shown) [Compound 670]: 2500 to 5000 nM; for `CCCCCCCOc1ccc2nc(-c3ccc(C[C@H](NC(=O)c4ccc(C(C)(C)C)cc4)C(=O)O)cc3)ccc2c1` [Compound 671, (S)-2-(4-(tert-butyl)benzamido)-3-(4-(6-(heptyloxy)quinolin-2-yl)phenyl)propanoic acid]: 2500 to 5000 nM.
Take `CCCCCCCOc1ccc2cc(-c3ccc(C[C@H](NC(=O)c4ccc(C(C)(C)C)cc4)C(=O)O)cc3)ncc2c1` [Compound 672, (S)-2-(4-(tert-butyl)benzamido)-3-(4-(7-(heptyloxy)isoquinolin-3-yl)phenyl)propanoic acid]: the 50% effective concentration (EC50) fell in the range of 2500 to 5000 nM.
For `CCCCCCCOc1ccc2nc(-c3ccc(C[C@H](NC(=O)c4ccc(C(C)(C)C)cc4)C(=O)O)cc3)ncc2c1` [Compound 673, (S)-2-(4-(tert-butyl)benzamido)-3-(4-(6-(heptyloxy)quinazolin-2-yl)phenyl)propanoic acid], the concentration for a half-maximal effect (EC50) fell in the range of 5000 to 10000 nM.
As for `CC(C)(C)c1ccc(C(=O)N[C@@H](Cc2ccc(-c3ncc(N4CCC(C(C)(C)C)CC4)cn3)cc2)C(=O)NCCC(=O)O)cc1` [Compound 674], the figure is 5000 to 10000 nM; as for `CC(C)(C)c1ccc(C(=O)N[C@@H](Cc2ccc(-c3ncc(-c4ccc(C(C)(C)C)cc4)cn3)cc2)C(=O)NCCC(=O)O)cc1` [Compound 675], 5000 to 10000 nM.
As for `CCCCCc1ccc(-c2cnc(-c3ccc(C[C@H](NC(=O)c4ccc(C(C)(C)C)cc4)C(=O)NCCC(=O)O)cc3)nc2)cc1` [Compound 676], the EC50 fell in the range of 2500 to 5000 nM.
As for `CCCCc1ccc(-c2cnc(-c3ccc(C[C@H](NC(=O)c4ccc(C(C)(C)C)cc4)C(=O)NCCC(=O)O)cc3)nc2)cc1` [Compound 677], the EC50 lay within 2500 to 5000 nM.
As for `CCCCCCc1ccc(-c2cnc(-c3ccc(C[C@H](NC(=O)c4ccc(C(C)(C)C)cc4)C(=O)NCCC(=O)O)cc3)nc2)cc1` [Compound 678], the figure is 800 to 2500 nM.
The same measure for `CCCCCCCc1ccc(-c2cnc(-c3ccc(C[C@H](NC(=O)c4ccc(C(C)(C)C)cc4)C(=O)NCCC(=O)O)cc3)nc2)cc1` [Compound 679]: 800 to 2500 nM; for `CC(C)(C)COc1ccc(-c2cnc(-c3ccc(C[C@H](NC(=O)c4ccc(C(C)(C)C)cc4)C(=O)NCCC(=O)O)cc3)nc2)cc1` [Compound 680]: 5000 to 10000 nM.
The same measure for `CC(C)CCSc1ccc(-c2cnc(-c3ccc(C[C@H](NC(=O)c4ccc(C(C)(C)C)cc4)C(=O)NCCC(=O)O)cc3)nc2)cc1` [Compound 681]: 5000 to 10000 nM; for `CC(C)(C)c1ccc(C(=O)N[C@@H](Cc2ccc(-c3ncc(-c4ccc(OCC(F)(F)F)cc4)cn3)cc2)C(=O)NCCC(=O)O)cc1` [Compound 682]: 2500 to 5000 nM.
In the case of `CCCCCCCCc1ccc(-c2cnc(-c3ccc(C[C@H](NC(=O)c4ccc(C(C)(C)C)cc4)C(=O)NCCC(=O)O)cc3)nc2)cc1` [Compound 683], the EC50 lay in the range of 800 to 2500 nM.
As to `CC(C)(C)c1ccc(C(=O)N[C@@H](Cc2ccc(-c3ncc(-c4ccc(OCC5CC5)cc4)cn3)cc2)C(=O)NCCC(=O)O)cc1` [Compound 684], the EC50 lay in the range of 5000 to 10000 nM.
Consider `CC(C)COc1ccc(-c2cnc(-c3ccc(C[C@H](NC(=O)c4ccc(C(C)(C)C)cc4)C(=O)NCCC(=O)O)cc3)nc2)cc1` [Compound 685], for which the EC50 was 2500 to 5000 nM.
As for `CCCCCCNc1ccc(-c2cnc(-c3ccc(C[C@H](NC(=O)c4ccc(C(C)(C)C)cc4)C(=O)NCCC(=O)O)cc3)nc2)cc1` [Compound 686], the figure is 2500 to 5000 nM; as for `CCCc1ccc(-c2cnc(-c3ccc(C[C@H](NC(=O)c4ccc(C(C)(C)C)cc4)C(=O)NCCC(=O)O)cc3)nc2)cc1` [Compound 687], 2500 to 5000 nM.
The same measure for `CC(C)(C)c1ccc(C(=O)N[C@@H](Cc2ccc(-c3ncc(-c4ccc(OC5CCCC5)cc4)cn3)cc2)C(=O)NCCC(=O)O)cc1` [Compound 688]: 2500 to 5000 nM; for `CC(C)(C)c1ccc(C(=O)N[C@@H](Cc2ccc(-c3ncc(-c4ccc(C#Cc5ccccc5)cc4)cn3)cc2)C(=O)NCCC(=O)O)cc1` [Compound 689]: 2500 to 5000 nM.
As for `CCCCCC(=O)c1ccc(-c2cnc(-c3ccc(C[C@H](NC(=O)c4ccc(C(C)(C)C)cc4)C(=O)NCCC(=O)O)cc3)nc2)cc1` [Compound 690], the EC50 was 2500 to 5000 nM.
Turning to `CC(C)(C)c1ccc(C(=O)N[C@@H](Cc2ccc(-c3ncc(-c4ccc(OC(F)=C(F)F)cc4)cn3)cc2)C(=O)NCCC(=O)O)cc1` [Compound 691], the EC50 was 2500 to 5000 nM.
For the compound `CCCCCCc1noc(-c2cnc(-c3ccc(C[C@H](NC(=O)c4ccc(C(C)(C)C)cc4)C(=O)NCCC(=O)O)cc3)nc2)n1` [Compound 692], the EC50 lay in the range of 5000 to 10000 nM.
With `CCCCCCOCC1CCN(c2cnc(-c3ccc(C[C@H](NC(=O)c4ccc(C(C)(C)C)cc4)C(=O)NCCC(=O)O)cc3)nc2)CC1` [Compound 693], the EC50 lay within 5000 to 10000 nM.
Turning to `C=CCCOc1ccc(-c2cnc(-c3ccc(C[C@H](NC(=O)c4ccc(C(C)(C)C)cc4)C(=O)NCCC(=O)O)cc3)nc2)cc1` [Compound 694], the EC50 is 2500 to 5000 nM.
Take `CC(C)Oc1ccc(-c2cnc(-c3ccc(C[C@H](NC(=O)c4ccc(C(C)(C)C)cc4)C(=O)NCCC(=O)O)cc3)nc2)cc1` [Compound 695]: the concentration giving a half-maximal response (EC50) lay in the range of 2500 to 5000 nM.
As for `CCC(CC)Oc1ccc(-c2cnc(-c3ccc(C[C@H](NC(=O)c4ccc(C(C)(C)C)cc4)C(=O)NCCC(=O)O)cc3)nc2)cc1` [Compound 696], the figure is 2500 to 5000 nM; as for `CCCCCCCOc1ccc(-c2cnc(-c3ccc(C[C@H](NC(=O)c4ccc(C(C)(C)C)cc4)C(=O)NCCC(=O)O)cc3)nc2)cc1F` [Compound 697], 2500 to 5000 nM.
As for `CCCCCCCOc1ccc(-c2cnc(-c3ccc(C[C@H](NC(=O)c4ccc(C(C)(C)C)cc4)C(=O)NCCC(=O)O)cc3)nc2)cc1C` [Compound 698], the figure is < 800 nM.
As for `CCCCCCCOc1ccc(-c2cnc(-c3ccc(C[C@H](NC(=O)c4ccc(C(C)(C)C)cc4)C(=O)NCCC(=O)O)cc3)nc2)cc1OC` [Compound 699], the figure is 5000 to 10000 nM; as for `CCCCCCCOc1ccc(-c2cnc(-c3ccc(C[C@H](NC(=O)c4ccc(C(C)(C)C)cc4)C(=O)NCCC(=O)O)cc3)nc2)cc1C#N` [Compound 700], 5000 to 10000 nM; as for `CCCCCCCOc1ccc(-c2cnc(-c3ccc(C[C@H](NC(=O)c4ccc(C(C)(C)C)cc4)C(=O)NCCC(=O)O)cc3)nc2)c(Cl)c1` [Compound 701], 2500 to 5000 nM.
With `CCCCCCCOc1ccc(-c2cnc(-c3ccc(C[C@H](NC(=O)c4ccc(C(C)(C)C)cc4)C(=O)NCCC(=O)O)cc3)nc2)cc1Cl` [Compound 702], the EC50 fell in the range of 800 to 2500 nM.
